Assay results reported in US6281214A, “Biphenyl derivatives” (Eisai Co., Ltd, priority 1994, dated 2001).
Where two headings read alike, the source gives them in different places.

Tests used:
Design in all cases: species or system SD rats
dopamine D2 receptor = molecular target: T1, dopamine D2 receptor (Rattus norvegicus, UniProt P61169); test: dopamine D2 receptor binding test ([3H] Spiperone Binding Test); settings: 1 nM [3H] Spiperone, rat corpus striatum, room temperature, 60 minutes
T1 construct: the receptor fraction prepared from the corpus striatum was molten and suspended; from tissue; host or cells: corpus striatum of SD rats (membrane fraction)
T1 sequence (P61169 whole entry): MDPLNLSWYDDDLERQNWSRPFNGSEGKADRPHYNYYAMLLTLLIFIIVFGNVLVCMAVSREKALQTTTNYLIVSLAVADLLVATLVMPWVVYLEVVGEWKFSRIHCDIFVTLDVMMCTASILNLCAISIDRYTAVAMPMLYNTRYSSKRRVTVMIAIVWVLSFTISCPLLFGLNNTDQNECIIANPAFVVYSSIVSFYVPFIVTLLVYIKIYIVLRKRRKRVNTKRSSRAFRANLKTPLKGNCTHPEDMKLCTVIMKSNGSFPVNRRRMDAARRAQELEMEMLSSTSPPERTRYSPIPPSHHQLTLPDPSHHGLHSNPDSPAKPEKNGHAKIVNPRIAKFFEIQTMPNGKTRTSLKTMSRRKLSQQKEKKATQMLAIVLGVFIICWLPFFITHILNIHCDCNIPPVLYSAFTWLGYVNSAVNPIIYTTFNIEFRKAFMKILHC
Protocol: (§1) The compounds of the present invention were subjected to each of serotonin S2 receptor binding test, dopamine D2 receptor binding test and adrenergic α1 receptor binding test.
(§2) The following reagents were used in this test.
(§3) These reagents and samples were each dissolved in 10% ethanol before use. Among them, water-insoluble compounds were each dissolved in ethanol and the obtained solution was diluted with distilled water to an ethanol concentration of 10%. Further, Methylsergide maleate was used in a state dissolved in distilled water.
(§4) SD rats aged 6 to 8 weeks were used.
(§5) SD rats were each slaughtered with a guillotine to extirpate its cerebrum. The cortex and corpus striatum were separated from the cerebrum. The former was used in serotonin S2 receptor binding test and adrenergic α1, receptor binding test, while the latter was used in dopamine D2 receptor binding test.
On the other hand, the corpus striatum was homogenized in a 0.32 M sucrose solution in an amount ten times the wet weight of the corpus striatum by the use of a teflon glass homogenizer and the obtained mixture was centrifuged at 1,000×G for 20 minutes. The obtained supernatant was centrifuged at 10,000×G for 20 minutes. The obtained sediments were suspended together in 50 mM Tris hydrochloride (pH 7.4) in an amount ten times the initial wet weight of the corpus striatum by the use of a histocothrom, and the obtained suspension was centrifuged at 10,000×G for 20 minutes. This operation was repeated thrice. The resulting sediment was suspended in 50 mM Krebs-Tris (pH 7.4) in an amount 100 times the initial wet weight of the corpus striatum by the use of a histocothrom. The obtained suspension was used as a receptor fraction. This receptor fraction was stored at -80° C. until use.
(§6) Each IC50 value was calculated by the probit method and each Ki value was determined by the following formula: [formula]
(§7) In the above formula, C represents the concentration of radioligand, and Kd represents the affinity of radioligand for the receptor as determined by the Scatchard analysis.
5. [^3 H] Spiperone Binding Test
(§8) This test was conducted in the same manner as that of the binding test of [^3 H] Ketanserin except that the receptor fraction prepared from the corpus striatum was molten and suspended with a histocothrom, and the obtained suspension was incubated together with 1 nM-[^3 H], Spiperone at room temperature for 60 minutes and that the binding detected in the presence of 10 μl of Spiperone was regarded as nonspecific binding.

serotonin S2 receptor = molecular target: T2, serotonin S2 receptor (Rattus norvegicus, UniProt P14842); test: serotonin S2 receptor binding test ([3H] Ketanserin Binding Test); settings: 1 nM [3H] Ketanserin, rat cortex, 37° C., 15 minutes
T2 construct: The receptor fraction prepared from the cortex was molten and suspended; from tissue; host or cells: cerebral cortex of SD rats (membrane fraction)
T2 sequence (P14842 whole entry): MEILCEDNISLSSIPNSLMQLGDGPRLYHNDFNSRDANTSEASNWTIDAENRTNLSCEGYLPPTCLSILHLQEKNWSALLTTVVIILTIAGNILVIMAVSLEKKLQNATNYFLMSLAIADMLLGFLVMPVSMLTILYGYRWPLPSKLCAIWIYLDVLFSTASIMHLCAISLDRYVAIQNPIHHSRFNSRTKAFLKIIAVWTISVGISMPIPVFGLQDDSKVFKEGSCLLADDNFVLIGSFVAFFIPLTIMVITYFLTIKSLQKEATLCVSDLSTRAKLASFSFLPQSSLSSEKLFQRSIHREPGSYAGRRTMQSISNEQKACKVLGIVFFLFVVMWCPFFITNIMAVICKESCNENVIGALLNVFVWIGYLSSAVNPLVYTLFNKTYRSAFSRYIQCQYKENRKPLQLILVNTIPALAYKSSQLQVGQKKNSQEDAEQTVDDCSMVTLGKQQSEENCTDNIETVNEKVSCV
Protocol: as §1, §2, §3, §4, §5
(§9) The cortex was homogenized in a 0.32 M sucrose solution in an amount ten times the wet weight of the cortex by the use of a teflon glass homogenizer and the resulting mixture was centrifuged at 10,000×G for 20 minutes. The obtained sediment was suspended in 50 mM Tris hydrochloride (pH 7.4) in an amount ten times the initial wet weight of the cortex by the use of a histocothrom, and the obtained suspension was centrifuged at 10,000×G for 20 minutes. This operation was repeated twice. The obtained sediment was suspended in 50 mM Tris hydrochloride (pH 7.4) in an amount 20 times the initial wet weight of the cortex by the use of a histocothrom. The suspension thus prepared was used as a receptor fraction. This receptor fraction was stored at -80° C. until use.
4. [^3 ] Ketanserin Binding Test
The receptor fraction prepared from the cortex was molten and suspended by the use of a histocothrom. The resulting suspension was incubated together with 1 nM-[^3 H] Ketanserin at 37° C. for 15 minutes. The resulting reaction system was filtered through a Whatman GF/B glass filter with an MR-30R type cell harvester mfd. by Blandel. The resulting filter was washed twice with 5 ml of 50 mM Tris hydrochloride (ph 7.4) cooled with ice and the radioactivity of the Ketanserin bound the receptor was determined by the use of a liquid scintillation counter with 5 ml of ACS II. The binding detected in the presence of […] of Methylsergide was regarded as nonspecific binding.
as §6, §7

adrenergic α1 receptor = adrenergic α1 receptor binding test ([3H] Prazosin Binding Test); settings: 1 nM [3H] Prazosin, rat cortex, room temperature, 60 minutes
Protocol: as §1, §2, §3, §4, §5, §9, §6, §7
6. [^3 H] Prazosin Binding Test
as §8, with “cortex” for “corpus striatum”, “H] Prazosin” for “H], Spiperone”, “Phentolamine” for “Spiperone”

[1] = read-out: Ki value, dopamine D2 receptor

## CCN1CCN(c2cc(-c3ccccc3)c(OC)c(C(F)(F)CC)c2)CC1 [Example 186, 1-Ethyl-4-[3-phenyl-4-methoxy-5-(1,1-difluoropropyl)]phenylpiperazine]
Dopamine D2 receptor; [1]
  Ki: 2.96 nM
Serotonin S2 receptor
  Ki: 4.29 nM
Adrenergic α1 receptor
  Ki: > 1000 nM

## CCN1CCN(c2cc(-c3ccccc3C)c(Cl)c(C(F)CC(C)C)c2)CC1 (stereo not drawn) [Example 51, 1-Ethyl-4-[3-(2-tolyl)-4-chloro-5-(1-fluoro-3-methylbutyl)]phenylpiperazine]
Dopamine D2 receptor; [1]
  Ki: 27.2 nM
Serotonin S2 receptor
  Ki: 164 nM
Adrenergic α1 receptor
  Ki: > 1000 nM

## CCC(F)c1cc(N2CCN(CCc3ccccn3)CC2)cc(-c2ccccc2C#N)c1Cl (stereo not drawn) [Example 214, 1-[2-(2-Pyridyl)ethyl]-4-[3-(2-cyanophenyl)-4-chloro-5-(1-fluoropropyl)]phenylpiperazine]
Dopamine D2 receptor; [1]
  Ki: 5.15 nM
Serotonin S2 receptor
  Ki: 3.78 nM
Adrenergic α1 receptor
  Ki: 51.7 nM

## CCN1CCN(c2cc(-c3ccccc3)c(OC)c(S(N)(=O)=O)c2)CC1 [Example 124, 1-Ethyl-4-(3-phenyl-4-methoxy-5-aminosulfonyl)phenylpiperazine]
Dopamine D2 receptor; [1]
  Ki: 99.2 nM
Serotonin S2 receptor
  Ki: > 1000 nM
Adrenergic α1 receptor
  Ki: > 1000 nM

## CCCc1cc(N2CCN(CC)CC2)cc(-c2ccc(OC)cc2)c1OC [Example 73, 1-Ethyl-4-[3-(4-methoxphenyl)-4-methoxy-5-propyl]phenylpiperazine]
Dopamine D2 receptor; [1]
  Ki: 577 nM
Serotonin S2 receptor
  Ki: 635 nM
Adrenergic α1 receptor
  Ki: 332 nM

## CCN1CCN(c2cc(CCCF)c(OC)c(-c3ccccc3)c2)CC1 [Example 77, 1-Ethyl-4-[3-phenyl-4-methoxy-5-(3-fluoropropyl)]phenylpiperazine]
Dopamine D2 receptor; [1]
  Ki: 40 nM
Serotonin S2 receptor
  Ki: 24.3 nM
Adrenergic α1 receptor
  Ki: 182 nM

## CCN1CCN(c2cc(C=O)c(OC)c(-c3ccccc3)c2)CC1 [Example 106, 1-Ethyl-4-(3-phenyl-4-methoxy-5-formyl)phenylpiperazine]
Dopamine D2 receptor; Ki value, dopamine D2 receptor
  Ki: 44 nM
Serotonin S2 receptor
  Ki: 380 nM
Adrenergic α1 receptor
  Ki: > 1000 nM

## CCN1CCN(c2cc(-c3ccccc3C)c(Cl)c(S(=O)(=O)N3CCCC3)c2)CC1 [Example 141]
Dopamine D2 receptor; [1]
  Ki: 24.9 nM
Serotonin S2 receptor
  Ki: 92.7 nM
Adrenergic α1 receptor
  Ki: > 1000 nM

## CCC(F)c1cc(N2CCN(CC)CC2)cc(-c2ccccc2Cl)c1Cl (stereo not drawn) [Example 24, 1-Ethyl-4-[3-(2-chlorophonyl)-4-chloro-5-(1-fluoropropyl)]phenylpiperazine]
Dopamine D2 receptor; [1]
  Ki: 3.6 nM
Serotonin S2 receptor
  Ki: 40.9 nM
Adrenergic α1 receptor
  Ki: 537 nM

## CCCC(F)c1cc(N2CCN(CC)CC2)cc(-c2ccccc2C)c1F (stereo not drawn) [Example 50, 1-Ethyl-4-[3-(2-tolyl)-4-fluoro-5-(1-fluorobutyl)]phenylpiperazine]
Dopamine D2 receptor; [1]
  Ki: 9.14 nM
Serotonin S2 receptor
  Ki: 17.7 nM
Adrenergic α1 receptor
  Ki: > 1000 nM

## CCN1CCN(c2cc(-c3ccccc3)c(OC)c(C(F)Cc3ccncc3)c2)CC1 (stereo not drawn) [Example 121, 1-Ethyl-4-{3-phenyl-4-methoxy-5-[1-fluoro-2-(4-pyridyl)ethyl]}phenylpiperazine]
Dopamine D2 receptor; [1]
  Ki: 11 nM
Serotonin S2 receptor
  Ki: 168 nM
Adrenergic α1 receptor
  Ki: 308 nM

## CCN1CCN(c2cc(-c3ccccc3C)c(Cl)c(C3SCCCS3)c2)CC1 [Example 190, 1-Ethyl-4-[3-(2-tolyl)-4-chloro-5-(1,3-dithian-2-yl)phenylpiperazinepropanedithio]phenylpiperazine]
Dopamine D2 receptor; [1]
  Ki: 40.4 nM
Serotonin S2 receptor
  Ki: 18.5 nM
Adrenergic α1 receptor
  Ki: > 1000 nM

## CCS(=O)(=O)Nc1cc(N2CCN(C)CC2)cc(-c2ccccc2Cl)c1Cl [Example 34, 1-Methyl-4-[3-(2-chlorophenyl)-4-chloro-5-ethanesulfonylamino]phenylpiperazine]
Dopamine D2 receptor; [1]
  Ki: 0.37 nM
Serotonin S2 receptor
  Ki: 7.77 nM
Adrenergic α1 receptor
  Ki: 25.8 nM

## CCCc1cc(N2CCN(CC)CC2)cc(-c2ccccc2OC)c1OC [Example 132]
Dopamine D2 receptor; [1]
  Ki: 281 nM
Serotonin S2 receptor
  Ki: 392 nM
Adrenergic α1 receptor
  Ki: > 1000 nM

## CCCc1cc(N2CCN(CC)CC2)cc(-c2ccc(F)cc2)c1OC [Example 65]
Dopamine D2 receptor; [1]
  Ki: 6.6 nM
Serotonin S2 receptor
  Ki: 26.6 nM
Adrenergic α1 receptor
  Ki: 79 nM

## CCN1CCN(c2cc(-c3ccccc3)c(OC)c(C(F)Cc3ccccn3)c2)CC1 (stereo not drawn) [Example 99, 1-Ethyl-4-{3-phenyl-4-methoxy-5-[1-fluoro-2-(2-pyridyl)ethyl]}phenylpiperazine]
Dopamine D2 receptor; [1]
  Ki: 2.93 nM
Serotonin S2 receptor
  Ki: 170 nM
Adrenergic α1 receptor
  Ki: > 1000 nM

## CCN1CCN(c2cc(COCc3ccccc3)c(Cl)c(-c3ccccc3C)c2)CC1 [Example 167, 1-Ethyl-4-[3-(2-tolyl)-4-chloro-5-benzyloxymethyl]phenylpiperazine]
Dopamine D2 receptor; [1]
  Ki: 45.4 nM
Serotonin S2 receptor
  Ki: 23.8 nM
Adrenergic α1 receptor
  Ki: > 1000 nM

## CCCc1cc(N2CCN(CCF)CC2)cc(-c2ccc(F)cc2)c1OC [Example 72, 1-(2-Fluoroethyl)-4-[3-(4-fluorophenyl)-4-methoxy-5-propyl]phenylpiperazine]
Dopamine D2 receptor; Ki value, dopamine D2 receptor
  Ki: 50.3 nM
Serotonin S2 receptor
  Ki: 108 nM
Adrenergic α1 receptor
  Ki: 270 nM

## CCS(=O)(=O)Nc1cc(N2CCN(C)CC2)cc(-c2ccccc2C)c1Cl [Example 28, 1-Methyl-4-[3-(2-tolyl)-4-chloro-5-ethanesulfonylamino]phenylpiperazine]
Dopamine D2 receptor; [1]
  Ki: 1.6 nM
Serotonin S2 receptor
  Ki: 5.67 nM
Adrenergic α1 receptor
  Ki: 50.8 nM

## CCN1CCN(c2cc(NS(=O)(=O)CC(F)(F)F)c(Cl)c(-c3ccccc3Cl)c2)CC1 [Example 163, 1-Ethyl-4-[3-(2-chlorophenyl)-4-chloro-5-(2,2,2-trifluoroethyl)sulfonylamino]phenylpiperazine]
Dopamine D2 receptor; [1]
  Ki: 10.2 nM
Serotonin S2 receptor
  Ki: 63.6 nM
Adrenergic α1 receptor
  Ki: 195 nM

## CCN1CCN(c2cc(CCCOC)c(OC)c(-c3ccccc3)c2)CC1 [Example 68, 1-Ethyl-4-[3-phenyl-4-methoxy-5-(3-methoxypropyl)]phenylpiperazine]
Dopamine D2 receptor; [1]
  Ki: 35.1 nM
Serotonin S2 receptor
  Ki: 32 nM
Adrenergic α1 receptor
  Ki: 195 nM

## CCCC(O)c1cc(N2CCN(C)CC2)cc(-c2ccccc2C)c1Cl (stereo not drawn) [Example 174]
Dopamine D2 receptor; [1]
  Ki: 31.8 nM
Serotonin S2 receptor
  Ki: 48.7 nM
Adrenergic α1 receptor
  Ki: > 1000 nM

## CCC(O)c1cc(N2CCN(CC)CC2)cc(-c2ccccc2)c1OC (stereo not drawn) [Example 83, 1-Ethyl-4-[3-phenyl-4methoxy-5-(1-hydroxypropyl)]phenylpiperazine]
Dopamine D2 receptor; [1]
  Ki: 485 nM
Serotonin S2 receptor
  Ki: 84.5 nM
Adrenergic α1 receptor
  Ki: > 1000 nM

## CCCS(=O)(=O)Nc1cc(N2CCN(CC)CC2)cc(-c2ccccc2C=O)c1Cl [Example 196, 1-(2-Ethyl)-4-[3-(2-formylphenyl)-4-chloro-5-propanesulfonylamino]phenylpiperazine]
Dopamine D2 receptor; [1]
  Ki: 5.52 nM
Serotonin S2 receptor
  Ki: 13.2 nM
Adrenergic α1 receptor
  Ki: 744 nM

## CCN1CCN(c2cc(NS(=O)(=O)CC(F)(F)F)c(Cl)c(-c3ccccc3C)c2)CC1 [Example 136]
Dopamine D2 receptor; [1]
  Ki: 14.2 nM
Serotonin S2 receptor
  Ki: 89 nM
Adrenergic α1 receptor
  Ki: 472 nM

## CCCS(=O)(=O)Nc1cc(N2CCN(CC)CC2)cc(-c2ccccc2)c1Cl [Example 184, 1-Ethyl-4-(3-phenyl-4-chloro-5-propanesulfonylamino)phenylpiperazine]
Dopamine D2 receptor; [1]
  Ki: 0.17 nM
Serotonin S2 receptor
  Ki: 2.09 nM
Adrenergic α1 receptor
  Ki: 4.52 nM

## CCN1CCN(c2cc(C(=O)CC3CC3)c(OC)c(-c3ccccc3)c2)CC1 [Example 108, Ethyl-4-(3-phenyl-4-methoxy-5-cyclopropaneacetyl)phenylpiperazine]
Dopamine D2 receptor; [1]
  Ki: 162 nM
Serotonin S2 receptor
  Ki: 4 nM
Adrenergic α1 receptor
  Ki: 408 nM

## CCNS(=O)(=O)c1cc(N2CCN(CC)CC2)cc(-c2ccccc2)c1OC [Example 123, 1-Ethyl-4-(3-phenyl-4-methoxy-5-ethylaminofonyl)phenylpiperazine]
Dopamine D2 receptor; [1]
  Ki: 27 nM
Serotonin S2 receptor
  Ki: 17.9 nM
Adrenergic α1 receptor
  Ki: > 1000 nM
